# Assay results from patent publication US8883763B2 (Universite Joseph Fourier, priority 2010, dated 2014).
# Biological target: T1, PP1α (PP1CA) (Oryctolagus cuniculus, UniProt P62139)
# T1 construct: purchased New England Biolabs P0754
# Test: Protein phosphatase test (PP1 activity, DiFMUP fluorescent substrate)
# Assay type: biochemical
# Settings: PP1CA at 80 mU, fluorescent substrate (50 μM), molecules from 50 μM to 50 nM; read-out: PP1 Inhibition IC50
# Procedure: FIG. 13 presents the graph showing the inhibition of the PP1Cα activity by compound 6 in vitro. PP1Cα (New England Biolabs, 30 mU/well) was incubated in the presence of compound 6 at different concentrations and a fluorescent substrate, diFMUP.
# Determination of the 1050 was carried out with PP1CA at 80 mU in the presence of a fluorescent substrate
# (50 μM) and different concentrations of molecules from 50 μM to 50 nM.
# For the activity tests, PP1α (New England Biolabs # P0754) was used at a final concentration of 30 mU or 80 mU for the screening of all the analogues. 6,8-difluoro-4-methylumbelliferyl phosphate (DiFMUP, Invitrogen # D6567) was used as fluorescent substrate at a concentration of […]. All the tests were carried out in a final volume of 100 μl, at 37° C. in 96-microwell plates (Greiner #655096).
# Compound 6, combretastatin A4 (CA-4) as well as all the analogues were diluted in 50 μl of PP1 buffer (100 mM Tris-HCl, pH 7.5, 4 mM DTT, 0.2 mM EDTA, 0.5 mM MnCl2) from 50 μM to 50 nM. Corresponding quantities of DMSO were added to control wells. PP1α (30 or 80 mU in 30 μl of PP1 buffer) was added to each well. After incubating for 15 minutes at AT, the substrate was added (in 20 μl of PP1 buffer). After incubating for 20 minutes at 37° C., the fluorescence was measured in a plate fluorometer at 355-460 nm in order to assay the phosphatase activity. The test was carried out three times in duplicate for each condition.
# T1 sequence (P62139 whole entry): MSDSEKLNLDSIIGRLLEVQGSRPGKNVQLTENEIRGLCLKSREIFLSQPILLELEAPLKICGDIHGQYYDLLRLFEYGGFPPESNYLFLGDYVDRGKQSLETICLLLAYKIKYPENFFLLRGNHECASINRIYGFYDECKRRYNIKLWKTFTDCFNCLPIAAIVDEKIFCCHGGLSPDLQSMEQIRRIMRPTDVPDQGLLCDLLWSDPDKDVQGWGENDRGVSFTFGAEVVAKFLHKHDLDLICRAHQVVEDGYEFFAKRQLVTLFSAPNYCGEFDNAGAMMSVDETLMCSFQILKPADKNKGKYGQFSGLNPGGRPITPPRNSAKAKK
row,Compound,IC50 [µM]
1,"COc1ccc(-c2[nH]c(=O)c3cc(OC)ccc3c2N)cc1 [Compound 1, 4-amino-7-methoxy-3-(4-methoxyphenyl)isoquinolin-1(2H)-one]",> 50
2,"COc1ccc(-c2cc3ccc(OC)cc3c(=O)[nH]2)cc1 [Compound 4, 7-methoxy-3-(4-methoxyphenyl)isoquinolin-1(2H)-one]",> 50
3,COc1ccc2c(N)c(-c3ccccc3)[nH]c(=O)c2c1 [Compound 10],> 50

# Continued, values first:
row,IC50 [µM],Compound
1,25 to 50,"COc1ccc(COc2nc(-c3ccc(OC)cc3)c(I)c3ccc(OC)cc23)cc1 [Compound 69, 4-Iodo-7-methoxy-1-(4-methoxybenzyloxy)-3-(4-methoxyphenyl)isoquinoline]"
2,≥ 50,"COc1ccc(-c2cc3ccc(OC)cc3c(=O)n2C)cc1 [Compound 65, 7-Methoxy-3-(4-methoxyphenyl)-2-methylisoquinoline-1(2H)-one]"
3,> 50,"COc1ccc(-c2c([N+](=O)[O-])c3ccc(OC)cc3c(=O)n2N)cc1 [Compound 62, 2-Amino-7-methoxy-3-(4-methoxyphenyl)-4-nitroisoquinoline-1(2H)-one]"
4,10 to 24,"COc1ccc2c([N+](=O)[O-])c(-c3ccc(O)cc3)[nH]c(=O)c2c1 [Compound 72, 3-(4-hydroxyphenyl)-7-methoxy-4-nitroisoquinolin-1(2H)-one]"

# Test system: bovine brain tubulin
# Test: In vitro tubulin polymerization test (turbidimetry at 350 nm)
# Assay type: biochemical
# Settings: molecules at 50 μM, calculated at t=3000 s, DMSO control = 100%
# Procedure: Tubulin was purified from bovine brain using the polymerization-depolymerization process described by (Castoldi M and Popov A V. Protein Expr Purif. 2003, 32(1): pp 83-8).
# The in vitro tubulin polymerization tests (at 50 μM) were carried out in the presence of GTP 1 mM in BRB80 buffer (80 mM K-PIPES pH 6.8, 1 mM MgCl2, 1 mM EGTA) at 37° C. The tests were carried out in 96-microwell plates (half-wells) (Costar plates, Corning #3695), in triplicate with a final volume of 70 μl. Tubulin assembly was carried out in the presence of compound 6 or its analogues (all used at a concentration of 50 μM) and was monitored by turbidimetry measurement at 350 nm using a spectrophotometer (Spectramax More, Molecular Devices).
# Measurement of the effect of a molecule on polymerization was calculated at t=3000 s taking the value of the control at the same time as being equal to 100%.
row,Compound,Tubulin polymerization inhibition
1,"COc1ccc(COc2nc(-c3ccc(OC)cc3)c(I)c3ccc(OC)cc23)cc1 [Compound 69, 4-Iodo-7-methoxy-1-(4-methoxybenzyloxy)-3-(4-methoxyphenyl)isoquinoline]",+ ((+) signifies that the molecule induces tubulin assembly inhibition in vitro comprised between 6 and 25% of the DMSO control.)
2,"COc1ccc(-c2[nH]c(=O)c3cc(OC)ccc3c2N)cc1 [Compound 1, 4-amino-7-methoxy-3-(4-methoxyphenyl)isoquinolin-1(2H)-one]",— ((−) signifies that the molecule induces little or no tubulin assembly inhibition in vitro: 0+ or − −5% of the DMSO control.)
3,"COc1ccc(-c2cc3ccc(OC)cc3c(=O)n2C)cc1 [Compound 65, 7-Methoxy-3-(4-methoxyphenyl)-2-methylisoquinoline-1(2H)-one]",+ ((+) signifies that the molecule induces tubulin assembly inhibition in vitro comprised between 6 and 25% of the DMSO control.)
4,"COc1ccc(-c2cc3ccc(OC)cc3c(=O)[nH]2)cc1 [Compound 4, 7-methoxy-3-(4-methoxyphenyl)isoquinolin-1(2H)-one]",— ((−) signifies that the molecule induces little or no tubulin assembly inhibition in vitro: 0+ or − −5% of the DMSO control.)
5,"COc1ccc(-c2c([N+](=O)[O-])c3ccc(OC)cc3c(=O)n2N)cc1 [Compound 62, 2-Amino-7-methoxy-3-(4-methoxyphenyl)-4-nitroisoquinoline-1(2H)-one]",— ((−) signifies that the molecule induces little or no tubulin assembly inhibition in vitro: 0+ or − −5% of the DMSO control.)
6,COc1ccc2c(N)c(-c3ccccc3)[nH]c(=O)c2c1 [Compound 10],+ ((+) signifies that the molecule induces tubulin assembly inhibition in vitro comprised between 6 and 25% of the DMSO control.)
7,"COc1ccc2c([N+](=O)[O-])c(-c3ccc(O)cc3)[nH]c(=O)c2c1 [Compound 72, 3-(4-hydroxyphenyl)-7-methoxy-4-nitroisoquinolin-1(2H)-one]",++ ((++) signifies that the molecule induces tubulin assembly inhibition in vitro comprised between 26 and 50% of the DMSO control.)

# Test system: HeLa cells
# Test: Indirect immunofluorescence: effect on HeLa cells (mitotic arrest, microtubule depolymerization)
# Assay type: cell-based, human
# Parameters: key to Effect on Hela at 25 μM / Effect on Hela at 100 μM / Effect on Hela at 50 and 100 μM / Effect on Hela at 50 μM: —: −: no activity on the cells at 25 μM (if there is an effect at high concentrations, this is specified in the table).; *: weak activity (MA and/or slight depolymerization of the MTs and/or slight inhibition of proliferation),; **: average activity (MA and/or moderate depolymerization of the MTs and/or moderate inhibition of proliferation),; ***: strong activity (MA and/or pronounced depolymerization of the MTs and/or pronounced inhibition of proliferation),; ****: very strong activity (MA and/or very pronounced depolymerization of the MTs and/or strong inhibition of proliferation)
# Settings: 25 μM, 24 hours; mitotic index and/or depolymerization of the MTs
# Procedure: The cells were cultured on slides in 24-well plates and incubated for 24 hours with molecule 6 at different concentrations from 1 to 10 μM.
# Corresponding quantities of DMSO were added to the culture medium in the control wells.
# The cells were fixed in a solution of PBS with 4% paraformaldehyde (PFA) and 0.1% glutaraldehyde (GA), for 15 minutes and centrifuged at 300 g for the last 10 minutes of the fixing. The slides were rinsed in PBS and the free aldehyde groups were reduced by two successive 5-minute incubations in PBS containing 1 mg/ml of NaBH4.
# After one washing with PBS then another with PBST (PBS with 0.5% triton-X-100), the cells are incubated for 30 minutes at ambient temperature with anti α-tubulin monoclonal antibody solution (DM1A clone, Sigma # T6199) diluted to 1:200 in PBST. After 3 10-minute washings with PBST, the cells are incubated for 30 minutes at ambient temperature in a solution of goat anti-mouse polyclonal antibodies coupled with Alexa 488 (1:1000, Molecular Probes # A-11029) and phalloidin coupled with Texas red to label the actin (1:2000, Molecular Probes # T7471), in PBST also containing Hoechst 33258 (1 μg/ml) for labelling the DNA. After 3 10-minute washings in PBST, the slides are mounted on plates in Fluorsave™ mounting medium (Calbiochem #345789) and are observed and analyzed using an Axiovert 200M inverted fluorescence microscope (Zeiss®). The images are produced with a Plan-Apochromat 63× oil objective (Zeiss®) by means of a Coolsnap HQ camera (Roper Scientifics®) and with Metamorph acquisition software (Universal Imaging™ Corporation).
# In order to evaluate the effect of the analogues of compound 6 on PHFs and HeLa cells, the immunofluorescence technique described above was used and adapted to a 96-well dish format. The cells were seeded in glass-bottomed 96-well dishes and incubated for 24 hours in the presence of different concentrations of molecules from 100 μM to 50 nM. And in the same way as described above, the cells were fixed and immunolabelled. Analysis of the phenotypes as well as counting the mitotic cells were carried out with the same microscope but using a ×40 objective (Olympus). The molecules were compared with each other with respect to the mitotic arrest induced on PHFs and HeLa cells at 25 and 0.3 μM.
# The mitotic index and/or the depolymerization of the MTs were evaluated at 25 μM.
row,Compound,Effect on Hela at 25 μM
1,"COc1ccc(COc2nc(-c3ccc(OC)cc3)c(I)c3ccc(OC)cc23)cc1 [Compound 69, 4-Iodo-7-methoxy-1-(4-methoxybenzyloxy)-3-(4-methoxyphenyl)isoquinoline]",—
2,"COc1ccc(-c2[nH]c(=O)c3cc(OC)ccc3c2N)cc1 [Compound 1, 4-amino-7-methoxy-3-(4-methoxyphenyl)isoquinolin-1(2H)-one]",***
3,"COc1ccc(-c2cc3ccc(OC)cc3c(=O)n2C)cc1 [Compound 65, 7-Methoxy-3-(4-methoxyphenyl)-2-methylisoquinoline-1(2H)-one]",*
4,"COc1ccc(-c2cc3ccc(OC)cc3c(=O)[nH]2)cc1 [Compound 4, 7-methoxy-3-(4-methoxyphenyl)isoquinolin-1(2H)-one]",—
5,"COc1ccc(-c2c([N+](=O)[O-])c3ccc(OC)cc3c(=O)n2N)cc1 [Compound 62, 2-Amino-7-methoxy-3-(4-methoxyphenyl)-4-nitroisoquinoline-1(2H)-one]",***
6,COc1ccc2c(N)c(-c3ccccc3)[nH]c(=O)c2c1 [Compound 10],—
7,"COc1ccc2c([N+](=O)[O-])c(-c3ccc(O)cc3)[nH]c(=O)c2c1 [Compound 72, 3-(4-hydroxyphenyl)-7-methoxy-4-nitroisoquinolin-1(2H)-one]",****

# Same assay, conditions: 50 and 100 μM, 24 hours
row,Compound,Effect on Hela at 50 and 100 μM
1,"COc1ccc(-c2cc3ccc(OC)cc3c(=O)[nH]2)cc1 [Compound 4, 7-methoxy-3-(4-methoxyphenyl)isoquinolin-1(2H)-one]",**
2,COc1ccc2c(N)c(-c3ccccc3)[nH]c(=O)c2c1 [Compound 10],*

# Test system: HMEC cells
# Test: Proliferation of HMEC cells (GI50)
# Assay type: cell-based
# Settings: Homo sapiens, 120 h, 50 μM to 1 nM for 5 days
# Procedure: The HMECs were seeded at 10% confluence and incubated with the molecules at different concentrations (from 50 μM to 1 nM) for 5 days. The GI50 (50% Growth Inhibition) defines the concentration inducing a 50% reduction in proliferation with respect to the control.
row,Compound,GI50 [µM]
1,"COc1ccc(COc2nc(-c3ccc(OC)cc3)c(I)c3ccc(OC)cc23)cc1 [Compound 69, 4-Iodo-7-methoxy-1-(4-methoxybenzyloxy)-3-(4-methoxyphenyl)isoquinoline]",25 to 50
2,"COc1ccc(-c2[nH]c(=O)c3cc(OC)ccc3c2N)cc1 [Compound 1, 4-amino-7-methoxy-3-(4-methoxyphenyl)isoquinolin-1(2H)-one]",1 to 25
3,"COc1ccc(-c2cc3ccc(OC)cc3c(=O)n2C)cc1 [Compound 65, 7-Methoxy-3-(4-methoxyphenyl)-2-methylisoquinoline-1(2H)-one]",1 to 25
4,"COc1ccc(-c2cc3ccc(OC)cc3c(=O)[nH]2)cc1 [Compound 4, 7-methoxy-3-(4-methoxyphenyl)isoquinolin-1(2H)-one]",> 50
5,"COc1ccc(-c2c([N+](=O)[O-])c3ccc(OC)cc3c(=O)n2N)cc1 [Compound 62, 2-Amino-7-methoxy-3-(4-methoxyphenyl)-4-nitroisoquinoline-1(2H)-one]",1 to 25
6,COc1ccc2c(N)c(-c3ccccc3)[nH]c(=O)c2c1 [Compound 10],> 50
7,"COc1ccc2c([N+](=O)[O-])c(-c3ccc(O)cc3)[nH]c(=O)c2c1 [Compound 72, 3-(4-hydroxyphenyl)-7-methoxy-4-nitroisoquinolin-1(2H)-one]",0.1 to 1
